Key:
[1] = tested on: splenocytes (MBP-specific T-lymphocyte response); assay: Lymphocyte proliferation assay (MBP-induced, splenocytes of treated rats); type: cell-based, rat; conditions: splenocytes of Lewis rats immunised with MBP, day 16 after immunisation, treated in vivo with MTA; MBP 10 μg/ml
Method: The splenocytes were purified by means of Ficoll Hypaque density centrifugation starting from the rats with EAE and non-immunised rats. The lymphocite proliferation assay was conducted in the same manner as previously described [Villoslada, P., et al., J. Exp Med, 2000. 191 (10):1799-806].
Briefly, the splenocytes were placed in culture at a concentration of 2×10^6/ml in RPMI 1640 medium supplemented with 10% fetal bovine serum and penicillin/streptomycin, in the presence or absence of phytohemagglutinin (PHA, 5 μg/ml), MBP (10 μg/ml), MTA (100 μM) and DMSO. The cultures were incubated for 5 days in 96-well round-base plates (0.2 ml/well) at 37° C. The wells were struck with 0.5 μCi [^3H]TdR for 18 hours. The reading was performed using a liquid scintillation counter. The results were expressed as the mean stimulation index of the triplicate determinations.
In order to determine whether treatment with MTA modified the peripheral immune system's response to the antigen used in the immunisation, the MBP-induced proliferation responses were measured in splenocytes of animals treated with MTA and placebo (in Lewis rats). […] Therefore, it is observed that MTA inhibits the MBP-specific lymphocyte activation, which points to its immunomodulatory effect.

[2] = tested on: acute EAE in Lewis rats immunised with MBP; assay: Acute EAE induction and clinical score in Lewis rats immunised with MBP; type: in vivo, rat
[3] = tested on: IL-2, IFN-γ, TNF-α, IL-10 and iNOS mRNA; assay: Quantitative real-time PCR of cytokine and pro-inflammatory mediator mRNA in splenocytes; type: in vivo, rat; conditions: splenocytes of Lewis rats treated with MTA; relative to 18S rRNA (FIG. 5)
Method: Spleen, liver and blood samples were also obtained from each animal. The spleens and the livers were quickly frozen in liquid nitrogen and kept in fragments at −80° C. in order to be able to conduct the studies with RT-PCR (reverse transcription and polymerase chain reaction). The blood was centrifuged at 800 rpm for 10 minutes in order to obtain the serum, which was kept at −80° C.
The spleen and liver tissue segments were homogenised in RNA lysis buffer with 2% β-mercaptoethanol using a manual homogeniser. The total RNA was extracted using the Rneasy Mini Kit (Quiagen), following the manufacturer's instructions. During RNA purification, the DNA was eliminated by treatment with DNase. The RNA concentration and purity was determined by measuring the absorbance at 260 nm and 280 nm with a spectrophotometer (Eppendorf). Reverse transcription of the total RNA was performed using the High Capacity cDNA Archive Kit (Applied Biosystems). […]
For the quantitative PCR, the TaqMan Universal Master Mix (Applied Biosystems) was used. […]
The IL-2, IFN-γ, TNF-α, IL-10 and iNOS mRNA expression levels were quantified in relation to the rRNA 18S constitutive gene.
It was assessed whether MTA had the capacity to modify the expression of cytokines and other pro-inflammatory mediators. The IL-2, IFN-γ, TNF-α, IL-10 and iNOS gene expression was analysed by means of quantitative real-time PCR (RT-PCR). […]

[4] = tested on: inflammatory infiltrates in brain and spinal cord of Lewis rats immunised with MBP; assay: Histopathology and immunohistochemistry of brain and spinal cord; type: in vivo, rat
Method: The two Lewis rat groups were anaesthetised and injected by intracardiac route with 4% paraformaldehyde in 0.1 M phosphate buffer (pH 7.6) on day 16 of the disease. The brains and the cervical, thoracic and lumbar spinal cord segments were extracted and fixated for the entire night at 4° C. After fixation, the tissues were soaked in paraffin for histopathology and immunohistochemistry.
Histological evaluation of the brain and spinal cord sections included in paraffin was conducted. The sections were stained with hematoxylin-eosin (HE) and Luxol fast-blue in order to be able to assess the tissues' inflammation and demyelination. 24-30 sagital sections were examined for each rat. The blind semi-quantitative histological evaluation of inflammation and demyelination was conducted as previously described [Villoslada, P., et al., J. Exp Med, 2000. 191 (10):1799-806].
The immunohistochemical procedures were conducted on […] brain and medulla sections included in paraffin. The endogenous peroxidase activity was deactivated by means of 0.3% H2O2 in methanol for 20 min.
The sections were incubated for 30 min in PBS with 0.5% Tween® 20 and 10% goat or horse serum (Vector Laboratorios) and for 2 hours in PBS with 0.5% Tween® 20 and the primary antibodies in the following dilutions: rabbit antiglial fibrillary acid polyclonal anti-protein antibody (GFAP), 1:1,000 (Dakocytomation); mouse beta-amyloid precursor anti-protein antibody (APP), 1:100 (Zymed Laboratorios); mouse […] (OX-6), 1:200 (Serotec); rat anti-CD8 antibody, 1:250 (Serotec); type II anti-iNOS antibody, 1:250 (Serotec); rat anti-CD68 antibody (ED1), 1:200 (Serotec) and rat anti-CD43 antibody (W3/13), 1:50 (Serotec). Subsequently, the sections were washed with PBS and incubated for 45 min at room temperature with the appropriate biotinylated secondary IgG antibody (1:100 in PBS; Vector Laboratorios), followed by several washes in PBS/Tween® and a 45-min incubation at room temperature with the avidin-biotin peroxidase complex (ABC, Vector Laboratorios).
The immunoreaction specificity was determined by incubating the sections without the primary antibody. The images were obtained using an optic microscope.
The neuropathological evaluation confirmed the observed clinical protection. […] Inflammatory lesions were found in both the white and grey matter of the cervical, thoracic and lumbar spinal cord, and the brain. […] There were significant differences between the placebo animals and those treated with MTA in terms of both the severity and the central nervous system (CNS) regions affected. Treatment with MTA inhibits the development of inflammatory EAE in Lewis rats immunised with MBP.

[5] = tested on: chronic-recurrent EAE (CR-EAE) in Dark Agouti (DA) rats immunised with MOG; assay: Chronic-recurrent EAE (CR-EAE) clinical score and survival in DA rats immunised with rMOG; type: in vivo, rat
[6] = MTA 4.3 mg/animal i.p. daily from immunisation
[7] = immunohistochemical staining, MTA versus placebo group
[8] = 100 μM MTA i.p. daily from day 15 after immunisation

**Q.** Which “stimulation index (MBP-specific proliferation response)” value [1] does the source give for `CSCC1OC(n2cnc3c(N)ncnc32)C(O)C1O` (stereo not drawn) [MTA, 5′-methylthioadenosine] here?
**A.** 1.18±0.4

**Q.** What about the “EAE Incidence (%)” value [2, 6] of the same molecule?
**A.** (28.57%)

**Q.** What about the “EAE Incidence (rats with EAE / number of rats)” value [2, 6] of the same molecule?
**A.** 4/14

**Q.** What about the “Cumulative EAE Score” value ([2]; MTA i.p. daily from immunisation) of the same molecule?
**A.** 2 ± 0.07

**Q.** And the “Onset of EAE” value ([2]; MTA i.p. daily from immunisation, treated animals that developed symptoms)?
**A.** 15 ± 1.2 days

**Q.** And the “mRNA expression of cytokines (IL-2, IFN-γ, TNF-α, IL-10, iNOS) versus placebo group” value [3]?
**A.** lower

**Q.** And the “number of positive ED1 and W3/13 cells in inflammatory infiltrates” value [4, 7]?
**A.** higher in the placebo group

**Q.** What about the “proportions of positive OX-6 cells in inflammatory infiltrates” value [4, 7] of the same molecule?
**A.** same proportions

**Q.** What about the “stains for APP and iNOS” value ([4]; immunohistochemical staining, both groups) of the same molecule?
**A.** very low detection levels

**Q.** What about the “number and size of the inflammatory infiltrates versus placebo” value ([4]; spinal cord and brain, Lewis rats immunised with MBP (FIG. 6)) of the same molecule?
**A.** lower

**Q.** What about the “Cumulative EAE Score” value [5, 8] of the same molecule?
**A.** 23 ± 20

**Q.** And the “Incidence 2nd outbreak” value [5, 8]?
**A.** 10/10

**Q.** And the “Onset (days) 2nd outbreak” value [5, 8]?
**A.** 26 ± 6 days

**Q.** And the “Max. EAE Score” value ([5]; 100 μM MTA i.p. daily from day 15 after immunisation, scale 0-5)?
**A.** 1.8 ± 1.5

**Q.** What about the “survival rate versus placebo group” value ([5]; survival curves to score 3.5 and to exitus (FIG. 3)) of the same molecule?
**A.** significantly higher

Source: patent publication US7820637B2, “Use of 5′-methylthioadenosine (MTA) in the prevention and/or treatment of autoimmune diseases and/or transplant rejection” (Proyecto de Biomedicina Cima, S.L., priority 2005, dated 2010)
